From patent publication US5955508A, “Method for the enhancement of lymphocyte activity against opportunistic microbial pathogens” (priority 1996, dated 1999)
Entries after “also recorded” stand apart in the source; their conditions may differ.

System: CD4+ lymphocytes
Experiment: Con A induced lymphoproliferation of PBMC (CD4+ lymphocytes)
Assay type: cell-based, human
Details: for comparison of 5 ng/ml with 50 ng/ml d-FEN: 5 ng/ml vs 50 ng/ml
From the text: The T lymphocytes analyzed were obtained from 20 HIV+ patients (9 females and 11 males, 25-48 years of age). The patients were diagnosed as being HIV+ within the past 0.5-9 years, and 15 are being treated with antiviral drugs. The subjects' study identification number (indicates the order in which bloods were drawn), CD4+ and CD8+ counts (determined March, 1996, as part of the present study), age, sex, date of diagnosis, and pharmacotherapy are provided in Table 1.
The patients fell into one of three groups (Groups A, B and C) based on their CD4+ cell counts (the number of T helper cells/μL blood): 8 of the HIV+ patients had normal (or above normal) CD4+ levels (normal range 550-1500/μL); 4 had levels between 200-499/μL; and, 7 had CD4+ counts equal to or below 200/μL. This latter group of patients by definition have AIDS (see Table 41-3 from K. J. Ryan (Ed.), Sherris Medical Microbiology, Third Edition, Appleton & Lange:Norwalk, Conn., 1994, p. 547). These patients, moreover, have had recurrent candidiasis and other opportunistic infections which have become increasingly difficult to manage. All of the patients' CD8+ cell (cytotoxic T lymphocytes) counts were within or above normal range (300-1000/μL). We were unable to obtain enough lymphocytes from one patient (#4) to analyze their antifungal activity.
Peripheral blood (40 ml) was drawn (Mar. 29-30, 1996) from the patients on a "first come, first serve" basis when they arrived at the Ponce Center for Diagnosis and Treatment (Dr. Hiram Valazquez, Medical Director) for their monthly checkup and who volunteered their blood for experimental analysis. In addition, blood was drawn from 4 healthy HIV- volunteers in order to study their lymphoproliferation response to Con A. The lymphocytes were isolated and processed as detailed below.
The experimental protocol for this project is illustrated in Table A. Note that the cultures were exposed to two doses (5 and 50 ng/ml) of d-FEN in the mitogenesis assays, whereas only one dose (50 ng/ml) was used in the antifungal and cytokine release assays.
Cell Proliferation Analysis. Lymphoid cell suspensions were cultured in microtiter plates (Corning Glass Works, Corning, N.Y.) in the presence of 3.0 μg/ml Con-A (Pharmacia, Uppsala, Sweden) for 3 and 4 days at 37° C. d-FEN (5 and 50 ng/ml) was added the second day of culture. The cells were cultured at 2×10^5 /well in RPMI 1640 with 1% fetal bovine serum. The cells then were pulsed for 6.0 h with 1.0 μCi of [^3 H]-thymidine (DuPont-New England Nuclear Research, Boston, Mass.), harvested, and [^3 H]-thymidine incorporation determined with a liquid scintillation counter. The data are reported as a percent increase in the stimulation in dextrofenfluramine values.
The data were analyzed by a one- or two-way analysis of variance (ANOVA) with repeated measures where appropriate ([…] version 1; Jandel, San Rafael, Calif.). Significant main effects were subjected to post hoc analysis using the Student-Newman Keuls All Pairwise Multiple Comparisons test or the Mann-Whitney U test.
^A The stimulatory effect of dFEN is expressed as a percent increase
in the stimulation index of PBMCs cultured with the two doses of dFEN
versus that cultured without dFEN. The data represent the greatest
stimulation that occurred after the lymphocytes had been in culture for 3
or 4 days. The mitogenic activity of the PBMC (CD4+ lymphocytes) index of
stimulation was calculated as follows: […]

In the case of CCN[C@@H](C)Cc1cccc(C(F)(F)F)c1 [d-FEN], the “mitogenesis of human controls and AIDS patients vs non-AIDS HIV+ patients” value (5 ng/ml d-FEN) is reported as “greater mitogenesis in the presence of 5 ng/ml d-FEN than the non-AIDS HIV+ patients”, the “comparison of 5 ng/ml with 50 ng/ml d-FEN” value is reported as “lymphocytes obtained from human control and AIDS subjects respond better in vitro to a low (5 ng/ml) than to a high (50 ng/ml) dose; also recorded: greater lymphoproliferation in AIDS derived lymphocytes than 50 ng/ml” and the “comparison of 5 ng/ml with 50 ng/ml d-FEN” value (listed as dextrofenfluramine) is reported as “more effective than 50 ng/ml”. The “mitogenesis of non-AIDS HIV+ patients (Groups A+B) vs AIDS group” value (50 ng/ml d-FEN) was “greater mitogenesis than the AIDS group (Group C)”, the “dose effect, two way ANOVA” value (5 vs 50 ng/ml, p=0.15) was “did not reach significance” and the activation at 0.005 µg/mL (Homo sapiens, Lymphocyte, 5 ng/ml d-FEN, Groups A + B (non-AIDS HIV+), Con A, read-out: Increase in Index of Stimulation, Mean ± SEM) was 17 ± 8%. The activation at 0.05 µg/mL (Homo sapiens, Lymphocyte, 50 ng/ml d-FEN, Groups A + B (non-AIDS HIV+), Con A, read-out: Increase in Index of Stimulation, Mean ± SEM) was 50 ± 8% and the “proliferation, AIDS patient #15” value (no detectable CD4+ cells) was “did not show any proliferation”.
